Results reported in PMC8187357 (Communications Biology, 2021).
Where “and” joins values, the source holds several entries; their conditions need not be identical. Identical values can stand only once. Entries after “also recorded” stand apart in the source; their conditions may differ.

Key:
Plasma stability, mice = settings: mouse
Method: Test compounds were tested for plasma stability (test concentration of 10 μM) as per the protocols reported in publication[20].

Cannabinoid CB1 = target: T1, Cannabinoid CB1 (Homo sapiens, UniProt P21554); test: CEREP 80 panel binding: Cannabinoid; settings: read-out: % Inhibition of Control Specific Binding
T1 construct: Eurofins Cerep Panlabs
T1 sequence (P21554 whole entry): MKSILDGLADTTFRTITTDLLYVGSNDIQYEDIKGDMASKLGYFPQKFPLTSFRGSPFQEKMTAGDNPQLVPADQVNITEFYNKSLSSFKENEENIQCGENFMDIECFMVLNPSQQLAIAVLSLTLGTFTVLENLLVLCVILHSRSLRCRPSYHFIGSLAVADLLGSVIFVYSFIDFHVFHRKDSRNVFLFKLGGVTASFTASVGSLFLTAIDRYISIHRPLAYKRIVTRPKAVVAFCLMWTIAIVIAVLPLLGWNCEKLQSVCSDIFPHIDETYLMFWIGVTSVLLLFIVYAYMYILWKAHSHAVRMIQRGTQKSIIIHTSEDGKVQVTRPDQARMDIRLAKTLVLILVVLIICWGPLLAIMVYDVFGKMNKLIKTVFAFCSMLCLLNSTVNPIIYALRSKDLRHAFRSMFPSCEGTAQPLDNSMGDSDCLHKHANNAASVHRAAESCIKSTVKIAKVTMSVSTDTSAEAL
Method: (§1) CEREP 80 panel assay was carried out by Eurofins Cerep Panlabs facility at France. A series of binding assays was carried out to understand the off-target toxicity of CA-170. CA-170 was tested at 10 μM test concentration in duplicates. Compound binding was calculated as a % inhibition of the binding of a radioactively labeled ligand specific for each target. In each experiment the respective reference compound was tested concurrently with CA-170, and the data were compared with historical values determined at Eurofins. The experiment was accepted in accordance with Eurofins validation standard operating procedure. The results are expressed as a percent of control specific binding; (measured specific binding / control specific binding) × 100 and as a percent inhibition of control specific binding; 100−(measured specific binding / control specific binding) × 100 obtained in the presence of CA-170. The IC50 values (concentration causing a half-maximal inhibition of control specific binding) and Hill coefficients (nH) were determined by non-linear regression analysis of the competition curves generated with mean replicate values using Hill equation curve fitting.

Angiotensin -II AT1, AT2 = test: CEREP 80 panel binding: Angiotensin-II; settings: 10 µM
Method: as §1

PD-L1 [1] = target: PD-L1 (Homo sapiens, UniProt Q9NZQ7); test: SPR and solution NMR using recombinant extracellular domains; type: binding; design: SPR and solution NMR using recombinant proteins containing extracellular domains; host or cells: E. coli (said of the solution NMR studies); settings: recombinant proteins containing extracellular domains
Sequence of PD-L1 (Homo sapiens, UniProt Q9NZQ7) (Q9NZQ7 19-238 limits assumed, species assumed): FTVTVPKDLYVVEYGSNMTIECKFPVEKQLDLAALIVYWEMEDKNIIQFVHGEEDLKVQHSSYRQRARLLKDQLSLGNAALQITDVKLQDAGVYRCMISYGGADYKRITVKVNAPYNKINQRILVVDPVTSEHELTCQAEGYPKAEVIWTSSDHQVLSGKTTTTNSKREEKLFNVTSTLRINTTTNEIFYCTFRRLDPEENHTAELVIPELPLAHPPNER

Melanocortin MC4 = target: T2, Melanocortin MC4 (Homo sapiens, UniProt P32245); test: CEREP 80 panel binding: Melanocortin; settings: read-out: % Inhibition of Control Specific Binding
T2 construct: Eurofins Cerep Panlabs (contract assay)
T2 sequence (P32245 whole entry): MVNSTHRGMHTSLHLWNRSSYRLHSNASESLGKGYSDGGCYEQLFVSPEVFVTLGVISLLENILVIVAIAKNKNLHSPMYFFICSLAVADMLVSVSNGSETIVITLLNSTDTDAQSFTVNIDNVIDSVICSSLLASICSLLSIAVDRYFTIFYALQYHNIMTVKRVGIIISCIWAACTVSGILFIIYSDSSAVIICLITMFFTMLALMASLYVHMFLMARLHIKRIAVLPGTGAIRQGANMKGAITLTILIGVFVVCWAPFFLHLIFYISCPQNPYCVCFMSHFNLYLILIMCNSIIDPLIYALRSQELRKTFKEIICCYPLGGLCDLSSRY
Method: as §1

MC38 colon carcinoma = test: Antitumor efficacy in MC38 syngeneic model (C57B6); type: in vivo, mouse; settings: MC38 in C57B6 mice, day 14 of dosing
Method: For MC38 syngeneic colon carcinoma subcutaneous model, 0.5 × 10^6 MC38 cells (Source: NCI/NIH, kind gift from Dr. Michael Pollack) were injected subcutaneously to the left flank of the C57B6 mouse (In-house) or SCID Beige mice (Source: Harlan, France) on day 1 and dosing was initiated when average tumor volume reached ~100 mm^3. Animals were randomized based on tumor volumes and treated with either a vehicle control or CA-170 at indicated doses for 14 days. Anti-PD1 antibody (Clone J43 from BioXcel) was dosed intraperitoneally at 100 µg/animal once every week. Treatment efficacy was assessed in terms of the effects of the test substances on the tumor volumes of treated mice relative to vehicle-treated mice. Tumor growth curves of test and control groups using the mean tumor volumes were drawn, percent tumor growth inhibition (%TGI) […].

parental CHO-K1 cells = test: Cellular NMR (T2), parental CHO-K1 cells; type: binding; settings: cell-based NMR; no measurable PD-L1 expression
[2] = Phase 1, cited from earlier work
PD-L1 [3] = target: T3, PD-L1 (Mus musculus, UniProt Q9EP73); test: Rescue of IFN-γ release inhibited by PD-L1, mouse splenocytes; type: cell-based; settings: mean ± S.D.; n=2; read-out: Mouse Splenocyte IFN-γ Rescue EC50 PD-L1
T3 construct: purchased R&D Systems 1019-B7-100
T3 sequence (Q9EP73 with tags, fused parts or gaps limits assumed): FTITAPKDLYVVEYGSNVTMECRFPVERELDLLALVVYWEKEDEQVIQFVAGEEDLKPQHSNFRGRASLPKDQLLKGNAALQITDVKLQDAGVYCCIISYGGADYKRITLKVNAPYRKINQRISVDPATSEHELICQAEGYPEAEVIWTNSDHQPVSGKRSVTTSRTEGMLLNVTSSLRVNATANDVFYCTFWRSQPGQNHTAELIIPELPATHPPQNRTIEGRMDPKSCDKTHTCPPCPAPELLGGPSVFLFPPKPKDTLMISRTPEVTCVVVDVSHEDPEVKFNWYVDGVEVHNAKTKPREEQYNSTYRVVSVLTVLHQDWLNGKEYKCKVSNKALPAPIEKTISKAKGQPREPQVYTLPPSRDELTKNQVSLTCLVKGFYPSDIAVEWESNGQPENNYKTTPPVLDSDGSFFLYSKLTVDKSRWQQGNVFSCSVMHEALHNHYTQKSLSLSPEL
Method: The ability of peptides, peptidomimetics, and small molecules were analyzed for their ability to rescue T-cell proliferation or IFN-γ release from the inhibitory activity of PD-L1 or PD-L2 in a splenocyte/PBMC-based functional assay as per the protocols reported in publication[20]. […] For all in vitro assays, test agent stock was prepared in water and diluted further in the assay media to achieve test concentrations. Each experimental condition was carried out in triplicates. Percent rescue for a given test compound concentration was calculated by normalizing individual percent test agent proliferation or IFN-γ release values to percent anti-CD3 and anti-CD28 antibodies stimulated proliferation or IFN-γ release. EC50 values were derived by plotting transformed data into non-linear fit in sigmoidal dose–response curve using GraphPad Prism software (Version 7).

Neurotensin NTS1 = target: T4, Neurotensin NTS1 (Homo sapiens, UniProt P30989); test: CEREP 80 panel binding: Neurotensin; settings: read-out: % Inhibition of Control Specific Binding
T4 construct: Eurofins Cerep Panlabs (contract assay)
T4 sequence (P30989 whole entry): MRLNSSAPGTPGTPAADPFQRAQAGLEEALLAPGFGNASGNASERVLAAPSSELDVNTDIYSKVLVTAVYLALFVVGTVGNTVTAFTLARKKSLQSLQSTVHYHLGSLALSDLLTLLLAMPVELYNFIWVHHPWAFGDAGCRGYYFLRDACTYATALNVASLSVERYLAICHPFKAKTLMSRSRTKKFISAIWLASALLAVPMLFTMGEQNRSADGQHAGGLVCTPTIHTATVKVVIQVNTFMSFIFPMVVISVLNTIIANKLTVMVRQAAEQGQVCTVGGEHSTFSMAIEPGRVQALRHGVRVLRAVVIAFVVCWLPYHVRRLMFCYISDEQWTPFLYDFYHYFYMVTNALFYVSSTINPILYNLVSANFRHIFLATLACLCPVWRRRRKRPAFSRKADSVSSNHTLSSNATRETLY
Method: as §1

NFAT reporter = system: NFAT reporter; design: method as in PMID 31374878; settings: cited from earlier work

Q: What does the source list for `C[C@@H](O)[C@H](NC(=O)N[C@@H](CC(N)=O)c1nc([C@@H](N)CO)no1)C(=O)O` [CA-170]?
A: remaining at 4 h, 10 μM (Plasma stability, mice): > 95%; inhibition at 10 µM (Cannabinoid CB1): 12%; % Inhibition of Control Specific Binding (Angiotensin -II AT1, AT2): ≤ 5%; binding to PD-L1 by SPR and solution NMR (in words) (PD-L1 [1]): a definitive binding could not be established; also recorded: lack of binding; inhibition at 10 µM (Melanocortin MC4): 0%; Individual tumor volumes (MC38 colon carcinoma; CA-170 10 mg/kg PO daily, J43 100 µg/animal/week, 10 mg/kg): 391.77 mm3 and 388.53 mm3 and 554.94 mm3 and 536.22 mm3 and 252.8 mm3 and 593.87 mm3 and 294.73 mm3 and 377.95 mm3 and 460.46 mm3 and 205.38 mm3; tumor growth inhibition (MC38 colon carcinoma; CA-170 10 mg/kg/day orally, PD-1 antibody 100 µg/animal/week): 43%; binding to parental CHO-K1 cells (in words) (parental CHO-K1 cells): lack of binding; peripheral T-cell activation (in words) ([2]; circulating CD8+ and CD4+ T cells expressing CD69, Granzyme B, OX-40): Evidence of peripheral T-cell activation; T1/2 ([2]; oral 50 to 1200 mg): 4 to 9.5 h; safety profile (in words) ([2]; oral 50 to 1200 mg): acceptable safety profile; EC50 (PD-L1 [3]): 0.0347 µM; inhibition at 10 µM (Neurotensin NTS1): 7%; activity in NFAT-reporter-based assay (in words) (NFAT reporter): no activity
